Assay results: patent US10000487B2, “Heterocyclic compounds that inhibit the kinase activity of Mnk useful for treating various cancers” (eFFECTOR Therapeutics, Inc., priority 2015, dated 2018)

Legend:
[1] = tested on: Phosphorylated eIF4E; assay: peIF4E signaling cellular assay (CisBio HTRF); assay type: cell-based; conditions: 2 hrs incubation at 37° C.
Procedure: Phosphorylated eIF4E is assayed using the CisBio peIF4E HTRF® assay kit (CisBio, catalogue No. 64EF4PEG). Cells are plated in 96-well tissue-culture treated plate in appropriate growth medium (90 μL). Compounds (10×) are diluted using 3-fold serial dilutions in cell culture medium and added to cells. Plates are incubated for 2 hrs at 37° C. The cell supernatant is carefully removed either by aspirating supernatant or by flicking the plate. Immediately 50 μL of supplemented lysis buffer (1×) is added and incubated for at least 30 minutes at room temperature under shaking. After homogenization by pipeting up and down, 16 μL of cell lysate is transferred from the 96-well cell-culture plate to a 384-well small volume white plate. 4 μL of premixed antibody solutions (vol/vol) is prepared in the detection buffer and added. The plate is covered with a plate sealer and incubated overnight at room temperature. The fluorescence emissions at two different wavelengths are read (665 nm and 620 nm) on a Wallac Victor2. Emission ratios are converted into percent inhibitions and imported into GraphPad Prism software. […] IC50 values are determined using a nonlinear regression model available in GraphPad Prism 5.

[2] = target: recombinant MNK2 (Homo sapiens (Human), UniProt Q9HBH9); assay: MNK biochemical enzymatic assay (ADP-Glo), MNK2; conditions: 3 nM MNK2, 10 μM ATP
recombinant MNK2, sequence (Q9HBH9 whole entry): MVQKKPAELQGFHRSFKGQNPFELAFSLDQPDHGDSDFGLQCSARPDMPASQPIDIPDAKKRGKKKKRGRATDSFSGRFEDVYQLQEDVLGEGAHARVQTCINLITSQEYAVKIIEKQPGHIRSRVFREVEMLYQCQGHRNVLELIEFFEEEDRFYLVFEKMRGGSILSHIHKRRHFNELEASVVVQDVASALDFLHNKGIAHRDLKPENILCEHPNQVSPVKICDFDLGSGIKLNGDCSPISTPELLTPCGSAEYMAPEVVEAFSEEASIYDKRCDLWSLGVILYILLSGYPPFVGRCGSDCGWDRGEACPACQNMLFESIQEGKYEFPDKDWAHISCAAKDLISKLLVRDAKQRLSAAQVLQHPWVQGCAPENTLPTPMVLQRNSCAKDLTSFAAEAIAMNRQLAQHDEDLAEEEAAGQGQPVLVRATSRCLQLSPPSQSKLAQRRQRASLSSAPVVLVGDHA
Procedure: (§1) Compounds are screened for MNK inhibition using the ADP-Glo kinase assay kit (Promega, catalogue No. V9101). All kinase reactions are performed in Reaction Buffer E (15 mM HEPES pH7.4, 20 mM NaCl, 1 mM EGTA, 10 mM MgCl2, 0.1 mg/ml BGG, and 0.02% Tween-20). Final MNK1 reactions contained 10 nM recombinant MNK1 (Life Technologies, PR9138A), 100 μM MNK substrate peptide Ac-TATKSGSTTKNR-NH2 (American Peptide Company), 300 μM ATP, and varying concentrations of the inhibitory compound of interest. Final MNK2 reactions contained 3 nM recombinant MNK2 (Life Technologies, PV5607), 50 μM MNK substrate peptide Ac-TATKSGSTTKNR-NH2 (American Peptide Company), 10 μM ATP, and varying concentrations of the inhibitory compound of interest. Final DMSO concentration in each reaction is 1%.
(§2) Kinase reactions are carried out in 96-well half-area white flat-bottom polystyrene plates in a final volume of 25 μl. MNK1/2 enzymes are pre-incubated with compound and peptide substrate for 5 minutes prior to the addition of ATP. After the addition of ATP, kinase reactions are incubated at room temperature for 40 minutes. Reactions are subsequently stopped by the addition of 25 μl of ADP-Glo Reagent and incubating for an additional 40 minutes. The final luminescent signal used for kinase activity readout is produced by the addition of 45 μl of Kinase Detection Reagent (ADP-Glo kit, Promega) and incubating for 40 minutes. The luminescent signal is detected using a Victor 2 multilabel counter (Perkin Elmer) and the concentration of compound necessary to achieve inhibition of enzyme activity by 50% (IC50) is calculated using signals from an 8-point compound dilution series.

[3] = target: recombinant MNK1 (Homo sapiens (Human), UniProt Q9BUB5); assay: MNK biochemical enzymatic assay (ADP-Glo), MNK1; design: key to MNK1 IC50: IC50 values of less than 0.01 μM are labelled as “+++”; from 0.01 to 0.10 μM are labelled as “++”; from 0.1 to 10 μM are labelled as “+”; Inactive: greater than 10 μM are labelled inactive; conditions: 10 nM MNK1, 300 μM ATP
recombinant MNK1, sequence (Q9BUB5 whole entry): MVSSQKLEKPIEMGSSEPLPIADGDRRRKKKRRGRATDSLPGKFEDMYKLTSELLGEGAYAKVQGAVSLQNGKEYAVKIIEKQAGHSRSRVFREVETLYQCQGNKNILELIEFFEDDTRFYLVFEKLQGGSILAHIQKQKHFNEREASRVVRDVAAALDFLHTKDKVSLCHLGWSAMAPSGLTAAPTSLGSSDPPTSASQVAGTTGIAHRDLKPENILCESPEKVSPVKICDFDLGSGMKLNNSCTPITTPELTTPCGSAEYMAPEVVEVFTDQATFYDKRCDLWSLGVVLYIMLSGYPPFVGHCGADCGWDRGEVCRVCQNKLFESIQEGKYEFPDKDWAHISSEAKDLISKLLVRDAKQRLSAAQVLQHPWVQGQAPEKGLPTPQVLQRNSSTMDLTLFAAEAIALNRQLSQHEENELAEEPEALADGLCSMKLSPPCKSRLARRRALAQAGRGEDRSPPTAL
Procedure: as §1, §2

Row | SMILES | IC50 [1] [nM] | IC50 [2] [nM] | MNK1 IC50 [3] | IC50 [3] [nM]
1 | O=C1NC2(CCCCC2)n2c1c(Cl)cc(Nc1ncncn1)c2=O [compound 11, 6′-((1,3,5-triazin-2-yl)amino)-8′-chloro-2′H-spiro[cyclohexane-1,3′-imidazo[1,5-a]pyridine]-1′,5′-dione] | 10 to 100 | < 10 |  | 
2 | Cn1ncc(Nc2cc(Cl)c3n(c2=O)C2(CCCCC2)NC3=O)n1 [compound 7, 8′-chloro-6′-((2-methyl-2H-1,2,3-triazol-4-yl)amino)-2′H-spiro[cyclohexane-1,3′-imidazo[1,5-a]pyridine]-1′,5′-dione] | 100 to 100000 | < 10 |  | 
3 | O=C1NC2(CCCCC2)n2c1c(Cl)cc(Nc1cnns1)c2=O [compound 3, 6′-((1,2,3-thiadiazol-5-yl)amino)-8′-chloro-2′H-spiro[cyclohexane-1,3′-imidazo[1,5-a]pyridine]-1′,5′-dione] | 100 to 100000 | 10 to 100 | Inactive | 
4 | Nc1cc(Nc2cc(Cl)c3n(c2=O)C2(CCCCC2)NC3=O)ccn1 [compound 13, 6′-((2-aminopyridin-4-yl)amino)-8′-chloro-2′H-spiro[cyclohexane-1,3′-imidazo[1,5-a]pyridine]-1′,5′-dione] | 100 to 100000 | 10 to 100 |  | 
5 | O=C1NC2(CCCCC2)n2c1c(Cl)cc(Nc1cnsn1)c2=O [compound 6, 6′-((1,2,5-thiadiazol-3-yl)amino)-8′-chloro-2′H-spiro[cyclohexane-1,3′-imidazo[1,5-a]pyridine]-1′,5′-dione] | 100 to 100000 | < 10 |  | 
6 | O=C1NC2(CCCCC2)n2c1c(Cl)cc(Nc1cn[nH]n1)c2=O [compound 9, 6′-((2H-1,2,3-triazol-4-yl)amino)-8′-chloro-2′H-spiro[cyclohexane-1,3′-imidazo[1,5-a]pyridine]-1′,5′-dione] | 100 to 100000 | < 10 |  | 10 to 100
7 | O=C1NC2(CCCCC2)n2c1c(Cl)cc(Nc1nnco1)c2=O [compound 8, 6′-((1,3,4-oxadiazol-2-yl)amino)-8′-chloro-2′H-spiro[cyclohexane-1,3′-imidazo[1,5-a]pyridine]-1′,5′-dione] | 100 to 100000 | 100 to 10000 |  | 100 to 10000
8 | O=C1NC2(CCCCC2)n2c1c(Cl)cc(Nc1cncs1)c2=O [compound 5, 8′-chloro-6′-(thiazol-5-ylamino)-2′H-spiro[cyclohexane-1,3′-imidazo[1,5-a]pyridine]-1′,5′-dione] |  | 10 to 100 |  | 100 to 10000

Further lines, results first:

Row | IC50 [1] [nM] | IC50 [2] [nM] | MNK1 IC50 [3] | IC50 [3] [nM] | SMILES
9 |  | 10 to 100 |  | 100 to 10000 | O=C1NC2(CCCCC2)n2c1c(Cl)cc(Nc1ncn[nH]1)c2=O [4F, 6′-((1H-1,2,4-triazol-5-yl)amino)-8′-chloro-2′H-spiro[cyclohexane-1,3′-imidazo[1,5-a]pyridine]-1′,5′-dione]
10 | 100 to 100000 | < 10 |  | 10 to 100 | O=C1NC2(CCCCC2)n2c1c(Cl)cc(Nc1ncns1)c2=O [2F, 6′-((1,2,4-thiadiazol-5-yl)amino)-8′-chloro-2′H-spiro[cyclohexane-1,3′-imidazo[1,5-a]pyridine]-1′,5′-dione]
11 | 100 to 100000 | 10 to 100 |  | 100 to 10000 | O=C1NC2(CCCCC2)n2c1c(Cl)cc(Nc1nncs1)c2=O [1F, 6′-((1,3,4-thiadiazol-2-yl)amino)-8′-chloro-2′H-spiro[cyclohexane-1,3′-imidazo[1,5-a]pyridine]-1′,5′-dione]
